Measured values from patent publication US20050132438A1, “Novel monocotylednous plant genes and uses thereof” (priority 2000, published 2005).

Test system: wheat NIM1 homologue mRNA transcripts
Assay: RNA gel blot of wheat RNA probed with the KL1/KL2 PCR product of the wheat NIM1 homologue
Format: in vivo
Details: polyA+ RNA from leaf tissue of young wheat plants, BTH-treated for 24 h
From the text: The PCR product from wheat genomic DNA that is obtained with PCR primers KL1 and KL2 (SEQ ID NO:3 and SEQ ID NO:4, respectively) is used to probe gel blots of wheat RNA. […] The smaller transcript corresponds to the size detected in total RNA. […] The wheat “NIM loop”-described above is also used as a probe.

Compound: CSC(=O)c1cccc2nnsc12 [BTH, benzo(1,2,3)thiadiazole-7-carbothioic acid S-methyl ester]
- abundance of the two NIM1 homologue transcripts, BTH-treated versus untreated plants: equal abundance
